The values below are quoted from earlier work in patent US20200397766A1, “POROUS EMBOLIZATION MICROSPHERES COMPRISING DRUGS” (VAN RIJN BEHEER B.V., priority 2018, published 2020).

Molecules are shown by their SMILES.

With `OCCN(CCO)c1nc(N2CCCCC2)c2nc(N(CCO)CCO)nc(N3CCCCC3)c2n1` [Dipyridamole, dipyridamole], the “solubility in DMSO” value (DMSO) is “high solubility in DMSO”. Besides, the solubility in water entry (water) is “low solubility in water”.
